Assay results published in patent US7514555B2, “Compounds for the treatment of metabolic disorders” (Wellstat Therapeutics Corporation, priority 2003, dated 2009).
Entries after “also recorded” stand apart in the source; their conditions may differ.

Columns and labels:
db/db mice [1] = assay: Antidiabetic effects in db/db mice, daily oral dosing for 2 weeks; assay type: in vivo; conditions: for Glucose / Glucose (% of Control) / Free Fatty Acids ± SEM / Glucose ± SEM / Triglycerides ± SEM: 100 mg/kg daily oral; for Glucose / Glucose (% of Control): 2 weeks; for Glucose (% of Control): relative to vehicle control; for effect on blood glucose (in words) / effect on free fatty acids (in words) / effect on triglycerides (in words): 2 weeks of daily oral dosing; for Free Fatty Acids ± SEM / Glucose ± SEM / Triglycerides ± SEM: plasma serum, 2 weeks (Table IV)
Source text: (§1) Db/db mice have a defect in leptin signaling, leading to hyperphagia, obesity and diabetes. Moreover, unlike ob/ob mice on a C57BL/6J background, db/db mice on a C57BLKS background undergo failure of their insulin-producing pancreatic islet cells, resulting in progression from hyperinsulinemia (associated with peripheral insulin resistance) to hypoinsulinemic diabetes.
(§2) Male obese (db/db homozygote) C57BL/Ksola mice approximately 8 weeks of age, were obtained from Jackson Labs (Bar Harbor, Me.) and randomly assigned into groups of 5-7 animals such that the body weights (40-45 g) and serum glucose levels (≧300 mg/dl in fed state) were similar between groups; male lean (db/+heterozygote) mice served as cohort controls. A minimum of 7 days was allowed for adaptation after arrival. All animals were maintained under controlled temperature (23° C.), relative humidity (50±5%) and light (7:00-19:00), and allowed free access to standard chow (Formulab Diet 5008, Quality Lab Products, Elkridge, Md.) and water.
[…] At the end of the treatment period 100 μl of venous blood was withdrawn in a heparinized capillary tube from the retro-orbital sinus for serum chemistry analysis.
The same procedure as Example 2 was followed.

db/db mice [2] = assay: Antidiabetic effects in db/db mice, daily oral dosing for 4 weeks; assay type: in vivo; conditions: for effect on blood glucose (in words) / effect on free fatty acids (in words) / effect on serum triglycerides (in words): 4 weeks of daily oral dosing; for effect on blood glucose (in words): versus vehicle; for effect on free fatty acids (in words) / effect on serum triglycerides (in words): versus vehicle-treated db/db mice; for Glucose ± SEM: serum glucose; for Glucose ± SEM / Free Fatty Acids ± SEM / Triglycerides ± SEM: 100 mg/kg daily oral, 4 weeks; for Free Fatty Acids ± SEM / Triglycerides ± SEM: serum
Source text: as §1, §2
Treatment cohorts were given daily oral doses of vehicle, Compound BI (100 mg/kg), or Compound CR (100 mg/kg) for 4 weeks. At the end of the treatment period 100 μl of venous blood was withdrawn in a heparinized capillary tube from the retro-orbital sinus for serum chemistry analysis.

| SMILES | Glucose (db/db mice [1]) [mg/dL] | Glucose (% of Control) (db/db mice [1]) | effect on blood glucose (in words) (db/db mice [1]) | effect on free fatty acids (in words) (db/db mice [1]) | effect on triglycerides (in words) (db/db mice [1]) | Free Fatty Acids ± SEM (db/db mice [1]) | Glucose ± SEM (db/db mice [1]) | Triglycerides ± SEM (db/db mice [1]) | effect on blood glucose (in words) (db/db mice [2]) | effect on free fatty acids (in words) (db/db mice [2]) | effect on serum triglycerides (in words) (db/db mice [2]) | Glucose ± SEM (db/db mice [2]) [mg/dL] | Free Fatty Acids ± SEM (db/db mice [2]) [µM] | Triglycerides ± SEM (db/db mice [2]) [mg/dL] |
| --- | --- | --- | --- | --- | --- | --- | --- | --- | --- | --- | --- | --- | --- | --- |
| Cc1cccc(C)c1COc1cccc(C(=O)CCC(=O)O)c1 [Compound BI, 4-(3-(2,6-Dimethylbenzyloxy)-phenyl)-4-oxobutanoic acid, reference compound] | 317.4 ± 48.0 | 42 ± 6 % of Control | significant reduction | caused a decrease | markedly reduce | 1070.3 ± 96.4 | 317.4 ± 48.0 | 136.3 ± 18.1 | significant reduction | reduced | reduced | 189 ± 25 | 1387 ± 101 | 125 ± 11 |
| Cc1cccc(C)c1COc1cccc([C@H](O)CCC(=O)O)c1 [Compound CR, 4-(3-(2,6-Dimethylbenzyloxy)-phenyl)-4(R)-hydroxybutanoic acid] | 263.2 ± 59.0 | 35 ± 8 % of Control | significant reduction | not CR caused a decrease | markedly reduce | 1326.3 ± 124.2 | 263.2 ± 59.0 | 86.3 ± 9.4 | significant reduction | reduced; also recorded: did result in a decrease | reduced | 235 ± 49 | 1634 ± 78 | 182 ± 29 |
